Experimental findings from patent publication US3963707A, “Novel N-nitroso compounds, compositions containing such compounds, processes for their preparation and methods of treatment therewith, and novel intermediates” (Aktiebolaget Leo, priority 1973, dated 1976) are described below.

Molecules are shown by their SMILES.

The subject of test [1] is Ehrlich ascites tumour, ELD hyperdiploid (46 chromosomes). Nature of the test: Ehrlich ascites tumour test (LD50, ED50, therapeutic index). The format is in vivo, SPF NMRI mice. The conditions noted are these: additional compounds, result in words. An excerpt:
(§1) The high activity against tumours is further illustrated in these experiments by comparisons with known antitumour agents used in the therapy. The therapeutic indexes (T.I.), i.e. the ratios LD50/ED50, are in all comparisons much more favourable with the compounds of the present invention.
(§2) LD50 is the dose that caused a 50 percent lethality of the animals, ED50 is the dose that caused a 50 percent reduction of tumour size.
(§3) The experimental design and the interpretation of the results have been in accordance with the standards set by the CCNSC (Cancer Chemotherapy Reports, January 1959 and December 1962), and by the DR&D (Cancer Chemotherapy Reports, September 1972, Vol. 3, No. 2).
(§4) The way of administration is by the intraperitoneal route (i.p.) in each case.
Ehrlich ascites tumour, ELD hyperdiploid (46 chromosomes)
Experimental animals: SPF NMRI mice.
Tumour implant: 2 × 10^6 tumour cells i.p.
(§5) Therapy: One injection i.p. on the day following implantation.
(§6) Termination: The animals are killed on the 8th day.
(§7) Evaluation: Weights of tumours of test animals compared with those of control animals.

In the next test the test system is Hepatoma AH 130. Nature of the test: in vivo. Set-up: species or system SPF Wistar rats. To be noted: additional compounds, result in words.
Text: as §1, §2, §3, §4
Experimental animals: SPF Wistar rats.
Tumour implant: 5 × 10^6 tumour cells i.p.
as §5, §6, §7

With `C#C[C@]1(OC(=O)N(CCCl)N=O)CC[C@H]2[C@@H]3CCc4cc(OC(C)=O)ccc4[C@H]3CC[C@@]21C` [17α-ethynylestradiol-3-acetate-17β-N-(2-chloroethyl)-N-nitroso carbamate], the anti-tumor activity result (in test [1]; in the test with Hepatoma AH 130) was “exhibit anti-tumor activity” throughout.
With `C#C[C@]1(OC(C)=O)CC[C@H]2[C@@H]3CCc4cc(OC(=O)N(CCCl)N=O)ccc4[C@H]3CC[C@@]21C` [17α-ethynylestradiol-17β-acetate-3-N-(2-chloroethyl)-N-nitroso carbamate], the anti-tumor activity result (in test [1]; in the test with Hepatoma AH 130) was “exhibit anti-tumor activity” throughout.
`CC(=O)O[C@@H]1C[C@H]2[C@@H]3CCc4cc(OC(=O)N(CCCl)N=O)ccc4[C@H]3CC[C@]2(C)[C@H]1OC(C)=O` [estriol-16α,17β-diacetate-3-N-(2-chloroethyl)-N-nitroso carbamate]: the anti-tumor activity result (in test [1]; in the test with Hepatoma AH 130) was “exhibit anti-tumor activity” each time.
As for `C[C@]12CC[C@@H](OC(=O)N(CCCl)N=O)C[C@H]1CC[C@@H]1[C@@H]2CC[C@]2(C)C(=O)CC[C@@H]12` [etiocholanolone-3α-N-(2-chloroethyl)-N-nitroso carbamate], the anti-tumor activity entry (in test [1]; with Hepatoma AH 130) was “exhibit anti-tumor activity” each time.
For the compound `C[C@]12CC[C@H](OC(=O)N(CCCl)C(=O)N(CCCl)N=O)CC1=CC[C@@H]1[C@@H]2CC[C@]2(C)C(=O)CC[C@@H]12` [dehydroepiandrosterone-3β-/N^2,N^4-bis (2-chloroethyl)-N^4-nitroso allophanate/], the anti-tumor activity result (in test [1]; with Hepatoma AH 130) was “exhibit anti-tumor activity” throughout.
Take `C[C@]12CC[C@H]3[C@@H](CCC4=CC(=O)CC[C@@H]43)[C@@H]1CC[C@@H]2OC(=O)N(C(=O)N(CCCl)N=O)C1CCCCC1` [19-nortestosterone-17β-/N^2-cyclohexyl-N^4-(2-chloroethyl)-N^4-nitroso allophanate/]: the anti-tumor activity result (in test [1]; in the test on Hepatoma AH 130) was “exhibit anti-tumor activity” in each case.
Consider `C[C@]12CC[C@@H]3c4ccc(OC(=O)N(CCCl)N=O)cc4CC[C@H]3[C@@H]1CC[C@@H]2OS(=O)(=O)O` [estradiol-3-N-(2-chloroethyl)-N-nitroso carbamate-17β-sodium sulphate], for which the anti-tumor activity result (in test [1]; with Hepatoma AH 130) was “exhibit anti-tumor activity” throughout.
In the case of `C[C@]12CC[C@H](OC(=O)N(C(=O)N(CCCl)N=O)c3ccccc3)CC1=CC[C@@H]1[C@@H]2CC[C@]2(C)C(=O)CC[C@@H]12` [dehydroepiandrosterone-3β-/N^2-phenyl-N^4-(2-chloroethyl)-N^4-nitroso allophanate/], the anti-tumor activity entry (in test [1]; in the test with Hepatoma AH 130) was “exhibit anti-tumor activity” in each case.
For `CN(C(=O)O[C@H]1CC[C@@]2(C)C(=CC[C@@H]3[C@@H]2CC[C@]2(C)C(=O)CC[C@@H]32)C1)C(=O)N(CCCl)N=O` [dehydroepiandrosterone-3β-/N^2-methyl-N^4-(2-chloroethyl)-N^4-nitroso allophanate/], the anti-tumor activity entry (in test [1]; with Hepatoma AH 130) was “exhibit anti-tumor activity” in each case.
Regarding `CC(=O)[C@H]1CC[C@H]2[C@@H]3CC=C4C[C@@H](OC(=O)N(C(=O)N(CCCl)N=O)C5CCC(C)CC5)CC[C@]4(C)[C@H]3CC[C@]12C` (stereo partly drawn) [pregnenolone-3β-/N^2-(4-methylcyclohexyl)-N^4-(2-chloroethyl)-N^4-nitroso allophanate/], the anti-tumor activity entry in the test with Hepatoma AH 130 is “exhibit anti-tumor activity”.
For the compound `C#C[C@]1(OC(=O)N(CCCl)N=O)CC[C@H]2[C@@H]3CCC4=C[C@@H](O)CC[C@@H]4[C@H]3CC[C@@]21C` [ethynodiol-17β-N-(2-chloroethyl)-N-nitroso carbamate], the anti-tumor activity result in the test on Hepatoma AH 130 is listed as “exhibit anti-tumor activity”.
Still for that read-out and setting: under `C[C@]12CC[C@@H]3c4ccc(OC(=O)N(CCCl)N=O)cc4CC[C@H]3[C@@H]1CC[C@@H]2OP(=O)(O)Oc1ccccc1` [estradiol-17β-phenyl hydrogen phosphate-3-N-(2-chloroethyl)-N-nitroso carbamate] stands “exhibit anti-tumor activity”.
Regarding `CC(=O)[C@@]1(OC(=O)N(CCCl)N=O)CC[C@H]2[C@@H]3C[C@H](C)C4=CC(=O)CC[C@]4(C)[C@H]3CC[C@@]21C` [6α-methyl-17α-hydroxy-progesterone,17α-N-(2-chloroethyl)-N-nitroso carbamate], the anti-tumor activity result with Hepatoma AH 130 is recorded as “exhibit anti-tumor activity”.
The same measure, in the same setting: under `CC(=O)[C@@]1(O)CC[C@H]2[C@@H]3C=C(Cl)C4=C[C@@H](OC(=O)N(CCCl)N=O)CC[C@]4(C)[C@H]3CC[C@@]21C` [6-chloro-pregna-4,6-diene-3β,17α-diol-20-one,3β-N-(2-chloroethyl)-N-nitroso carbamate] stands “exhibit anti-tumor activity”.
Same read-out and setting: as for `C[C@]12CCC(=O)C=C1CC[C@H]1[C@@H]3CC[C@](C)(OC(=O)N(CCCl)N=O)[C@@]3(C)C[C@H](O)[C@@]12F` [9α-fluoro-11β-hydroxy-17α-methyltestosterone-17β-N-(2-chloroethyl)-N-nitroso carbamate], the entry is “exhibit anti-tumor activity”; as for `CC(C)CCC[C@@H](C)[C@H]1CC[C@H]2[C@@H]3CC=C4C[C@@H](OC(=O)NC(=O)N(CCCl)N=O)CC[C@]4(C)[C@H]3CC[C@]12C` [cholesterol-3β-/N^4-(2-chloroethyl)-N^4-nitroso allophanate/], “exhibit anti-tumor activity”.
Still for that read-out and setting: under `CCCCC(=O)O[C@H]1CC[C@H]2[C@@H]3CCc4cc(OC(=O)N(CCCl)N=O)ccc4[C@H]3CC[C@]12C` [estradiol-17β-valerate-3-N-(2-chloroethyl)-N-nitroso carbamate] stands “exhibit anti-tumor activity”; under `CC(C)CCC[C@@H](C)[C@H]1CC[C@H]2[C@@H]3CC=C4C[C@@H](OC(=O)N(C(=O)N(CCCl)N=O)c5ccccc5)CC[C@]4(C)[C@H]3CC[C@]12C` [cholesterol-3β-/N^2-phenyl-N^4-(2-chloroethyl)-N^4-nitroso allophanate/], “exhibit anti-tumor activity”.
Consider `C#C[C@]1(OC(C)=O)CC[C@H]2[C@@H]3CCC4=C[C@@H](OC(=O)N(CCF)N=O)CC[C@@H]4[C@H]3CC[C@@]21C` [ethynodiol-17β-acetate-3β-N-(2-fluoroethyl)-N-nitroso carbamate], for which the anti-tumor activity result in the test with Hepatoma AH 130 was “exhibit anti-tumor activity”.
Still for that read-out and setting: as for `C#C[C@]1(OC(C)=O)CC[C@H]2[C@@H]3CCC4=C[C@@H](OC(=O)N(C)C(=O)N(CCCl)N=O)CC[C@@H]4[C@H]3CC[C@@]21C` [ethynodiol-17β-acetate-3β-/N^2-methyl-N^4-(2-chloroethyl)-N^4-nitroso allophanate/], the entry is “exhibit anti-tumor activity”; as for `C[C@]12CCC(=O)C=C1CC[C@@H]1[C@@H]2CC[C@@]2(C)[C@H]1CC[C@]2(C)OC(=O)N(CCCl)N=O` [17α-methyltestosterone-17β-N-(2-chloroethyl)-N-nitroso carbamate], “exhibit anti-tumor activity”.
